1 compound from article PMC7002685, “Inhibition of vascular calcification by inositol phosphates derivatized with ethylene glycol oligomers” (Nature Communications, 2020) can be followed below.

This series has as its system THP-1-derived macrophages. Briefly: Macrophage viability, compound without CPP2. The series is classed as cell-based, human. As for the experimental part: Cell viability was assessed using the MTS assay (CellTiter 96® Aqueous One Solution Cell Proliferation Assay, G3580; Promega, Madison, WI, USA) according to the manufacturer’s instructions. Assays using combined treatment of CPPs or CaP and test compounds were performed in 24-well plates using 20,000 cells per well and assays using test compounds only were performed in a 96-well plate format with a seeding density of 10,000 (VSMC) or 50,000 (THP-1) cells per well, respectively. For controls, cells were treated with respective complete medium only and results were calculated as % of control. […]
(n = 3 independent experiments).

`COCCOCCO[C@@H]1[C@@H](OP(=O)(O)O)[C@H](OCCOCCOC)[C@@H](OP(=O)(O)O)[C@@H](OP(=O)(O)O)[C@H]1OP(=O)(O)O` [(OEG2)2-IP4, 4,6-Di-O-(methoxy-diethyleneglycol)-myo-inositol-1,2,3,5-tetrakis(phosphate)]: the macrophage viability entry is on record as “does not alter viability”.
